Biological target: T1, D3R-ELucC (Homo sapiens, UniProt P35462)
T1 construct: gene DRD3
Assay: cell-based
Conditions: HEK-293T, read-out: β-Arrestin2 Recruitment / Emax [%]

T1 sequence (P35462 whole entry): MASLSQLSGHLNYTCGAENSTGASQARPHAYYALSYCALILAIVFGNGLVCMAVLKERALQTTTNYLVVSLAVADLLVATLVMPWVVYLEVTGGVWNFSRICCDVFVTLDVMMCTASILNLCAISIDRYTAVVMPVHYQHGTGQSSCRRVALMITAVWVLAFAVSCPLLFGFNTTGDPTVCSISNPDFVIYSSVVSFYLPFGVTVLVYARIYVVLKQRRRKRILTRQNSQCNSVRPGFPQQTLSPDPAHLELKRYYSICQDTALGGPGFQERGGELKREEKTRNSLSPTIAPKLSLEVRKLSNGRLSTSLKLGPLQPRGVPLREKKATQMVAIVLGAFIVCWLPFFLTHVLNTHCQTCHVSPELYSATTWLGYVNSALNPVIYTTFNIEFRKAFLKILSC

## CCN1CCC[C@H]1CNC(=O)c1cc(S(N)(=O)=O)ccc1OC [S-(−)-sulpiride]
  Emax: -26 ± 8%

Source: paper PMC7503597 (International Journal of Molecular Sciences, 2020)
